Test results published in the NIST ThermoML archive (doi:10.1016/j.jct.2015.02.011).

Assay: xn = mol fraction of the nth substance listed
Details: 100.7 kPa, Liquid; for mass density: Vibrating tube method; for speed of sound: Frequency=3 MHz, Sing-around technique in a fixed-path interferometer

CCCCCCCC[n+]1ccn(C)c1.F[P-](F)(F)(F)(F)F [1-octyl-3-methylimidazolium hexafluorophosphate] + C1CCOC1
Details | mass density, 308.15 K [kg/m3] | mass density, 313.15 K [kg/m3] | mass density, 318.15 K [kg/m3] | mass density, 323.15 K [kg/m3] | speed of sound, 313.15 K [m/s] | speed of sound, 318.15 K [m/s] | speed of sound, 323.15 K [m/s]
x1 = 0.0767 | 957.488 | 952.422 | 947.162 | 941.999 | 1231.1 | 1209 | 1185.7
x1 = 0.1791 | 1033.77 | 1028.9 | 1024.04 | 1019.03 | 1263.7 | 1242.4 | 1222.6
x1 = 0.2783 | 1083.82 | 1079.26 | 1074.69 | 1069.89 | 1286.5 | 1268.7 | 1250.7
x1 = 0.3996 | 1126.53 | 1122.17 | 1117.75 | 1113.1 | 1309.5 | 1292.1 | 1276.2
x1 = 0.5198 | 1157 | 1152.84 | 1148.57 | 1144.07 | 1324.6 | 1309.3 | 1294.4
x1 = 0.612 | 1175.28 | 1171.22 | 1167.05 | 1162.61 | 1334 | 1319.7 | 1305.3
x1 = 0.6957 | 1189.11 | 1185.14 | 1181.01 | 1176.74 | 1341.6 | 1327 | 1313
x1 = 0.7754 | 1200.62 | 1196.65 | 1192.68 | 1188.63 | 1348.4 | 1333.4 | 1319.2
x1 = 0.8991 | 1216.13 | 1212.37 | 1208.44 | 1204.28 | 1357.6 | 1342.7 | 1329.8
x1 = 1 | 1227.09 | 1223.3 | 1219.5 | 1215.42 | 1365.8 | 1351.2 | 1338
